Data as given in paper PMC7385433 (International Journal of Antimicrobial Agents, 2020).

Tests used:
[1] = system: Burkholderia pseudomallei K96243; design: species or system Galleria mellonella; details: for larvae whose haemolymph was sterile of any bacteria / survival of Galleria larvae: in vivo
B. pseudomallei [2] = details: ip; cited from earlier work
[3] = system: Burkholderia pseudomallei K96243; type: in vivo, BALB/c mice; details: for survival at 30 days post-infection: n = 5
[4] = system: gyrase and topoisomerase IV; details: cited from earlier work
[5] = not told; cited from earlier work
in vivo = details: female, BALB/c, mouse, ip, 15 mg/kg
B. pseudomallei [6] = assay: microbe, parasite or virus in culture; type: cell-based; details: Burkholderia pseudomallei, read-out: minimum inhibitory concentration (MIC)
[7] = in vivo

Q: For coumermycin, which “bacterial load in haemolymph (killing activity in vivo)” value [1] is on record?
A: The value was “significantly reduced the bacterial load”.

Q: What about the “larvae whose haemolymph was sterile of any bacteria” value [1] of the same molecule?
A: Its value is 60%.

Q: What about the “survival of Galleria larvae” value [1] of the same molecule?
A: The value was “all Galleria larvae survived”.

Q: What about the “activity against multiple strains of B. pseudomallei in vivo” value (B. pseudomallei [2]) of the same molecule?
A: Its value is “significant activity”.

Q: What about the “units with complete organ sterility” value ([3]; mouse, in vivo) of the same molecule?
A: The value was 40%.

Q: What about the “survival at 30 days post-infection” value [3] of the same molecule?
A: The value was 40%.

Q: For `CO[C@@H]1[C@@H](OC(=O)c2ccc(C)[nH]2)[C@@H](O)[C@H](Oc2ccc3c(O)c(NC(=O)c4ccc(O)c(CC=C(C)C)c4)c(=O)oc3c2Cl)OC1(C)C` [clorobiocin], which “potency as inhibitor of gyrase and topoisomerase IV relative to novobiocin” value [4] is on record?
A: Its value is “more potent inhibitor”.

Q: And the “bacterial load in haemolymph (killing activity in vivo)” value [1]?
A: Its value is “significantly reduced the bacterial load”.

Q: And the “larvae whose haemolymph was sterile of any bacteria” value [1]?
A: The value was 100%.

Q: And the “survival of Galleria larvae” value [1]?
A: The value was “all Galleria larvae survived”.

Q: And the “membrane permeability compared with novobiocin” value [5]?
A: The value was “improved membrane permeability”.

Q: What does the source list for `CO[C@@H]1[C@@H](OC(N)=O)[C@@H](O)[C@H](Oc2ccc3c(O)c(NC(=O)c4ccc(O)c(CC=C(C)C)c4)c(=O)oc3c2C)OC1(C)C` [novobiocin]?
A: AUC (in vivo): 33.2 µM·h; AUC(0-inf) (in vivo): 33.2 µM·h; AUC(0-t) (in vivo): 33.2 µM·h; Cmax (in vivo): 10.7 µM; Tmax (in vivo): 1 h; half-life (in vivo; t1/2): 2.8 h; bacterial load in haemolymph (killing activity in vivo) [1]: no significant killing activity; survival of Galleria larvae [1]: no larvae treated with novobiocin survived longer than 24 h post-infection; MIC (B. pseudomallei [6]): < 10 µg/mL; effect of DL-tryptophan on drug accumulation in tissue [7]: No significant effect on drug accumulation in adipose or haemolymphatic tissue

Q: Which “B. pseudomallei present in lungs of surviving mice” value ([3]; mouse, in vivo) does the source give for `CC(C)(O/N=C(\C(=O)N[C@@H]1C(=O)N2C(C(=O)[O-])=C(C[n+]3ccccc3)CS[C@H]12)c1csc(N)n1)C(=O)O` [ceftazidime] here?
A: Its value is “two of three”.

Q: And the “bacteria in spleen of surviving mice” value ([3]; mouse, in vivo)?
A: Its value is > 1 × 10^7 CFU.

Q: What about the “survival at 30 days post-infection” value [3] of the same molecule?
A: Its value is 60%.
